Earlier results as cited in US20180008598A1, “ANTIBACTERIAL NASAL COMPOSITIONS AND RELATED METHODS” (Xlear, Inc., priority 2016, published 2018).

Assays:
dental caries = conditions: regular consumption
Streptococcus pneumonia = conditions: in vitro, during its logarithmic growth phase

OC[C@@H](O)[C@H](O)[C@@H](O)CO [Xylitol, xylitol]
incidence of dental caries (dental caries): reduce the incidence of dental caries | growth of Streptococcus pneumonia (Streptococcus pneumonia): inhibit the growth
